Legend:
[1] = Cytotoxicity / cell viability (Presto blue); type: cell-based; settings: human, RD cells
Protocol: The in vitro cellular viability of the as-prepared Cur-CQDs was evaluated using the Presto blue. First, approximately 7.5×10^3 RD cells/well were seeded in 96-cell plates and were fed with DMEM containing 10% fetal bovine serum (FBS). After 24 hours of incubation in a humidified incubator with 5% CO2 at 37° C., the medium was removed from each well, and RD cells were washed with phosphate buffered saline (PBS, pH 7.4). Then, sample solutions (Cur-CQDs with different concentrations) or the control solutions were added in and incubated with cells for 24 hours to 72 hours. Each concentration was tested with 4 sets of parallel samples. After that, the culture medium was replaced with Presto blue and incubated for another 1 hour at 37° C. Finally, fluorescence was measured at an excitation wavelength at 540 nm and an emission wavelength at 590 nm with a BioTek Microplate Reader. The viability of cells was expressed as the percentage of control untreated cells (100%).

EV71 = experiment: Cytopathic effect (CPE) inhibition assay, RD cells infected with EV71 (pre-, post-, co-treatment); type: cell-based, human rhabdomyosarcoma (RD) cells
Protocol: RD cells were seeded at 7.5×10^3 cells/well in 96-well plates and incubated for 24 hours at 37° C. To analyze how Cur-CQDs affect the infectivity of EV71, Cur-CQDs pre-treatment, post-treatment, co-treatment assay was taken as follows. For pre-treatment, Cur-CQDs were pre-incubated with RD cells at 37° C. for 24 hours and then cultured with EV71 for 48 hours at 37° C. For post-treatment, EV71 were pre-incubated with RD cells at 37° C. for 24 hours, after that, cell monolayers were washed with PBS to remove non-adherent virus and further incubated with DMEM (containing 2% FBS and Cur-CQDs) at 37° C. for 48 hours. For co-treatment, EV71 were pre-incubated with series of CQDcurs at 37° C. for 1 hour, then cultured with RD cells for 72 hours at 37° C. Negative (cells only) and positive (cells infected with EV71 without Cur-CQDs) controls were set as well.

EC50 (EV71; Enterovirus A, EV71 in RD cell, read-out: Antiviral activity EC50 (concentration at which inhibition rate of CPE reaches halfway between baseline and maximum)): > 200 µg/mL
SMILES: COc1cc(/C=C/C(=O)CC(=O)/C=C/c2ccc(O)c(OC)c2)ccc1O [Curcumin]
CC50 [1]: > 13 µg/mL
selectivity ratio (EV71; human): 0.1

Source: patent US11464823B2, “Curcumin carbon quantum dots and use thereof” (priority 2018, dated 2022)
